Assay [1] deals with Candida albicans. The assay can be described thus: Plate test procedure for measurement of inhibition (antifungal activity). Type of assay: cell-based. The method, then: The following represents the typical procedure used. Compound to be tested was placed on sterile dried 1/4" plate disks, and allowed to dry. Agar plates were seeded with fungi and allowed to solidify. The impregnated disks were placed on the seeded Agar surface and incubated for the time required for the particular culture. Results are expressed in MIC (μg/ml) to inhibit growth.

Assay [2] relates to thymocyte proliferation. Kind of assay: Comitogen-induced thymocyte proliferation procedure (LAF). The assay is classed as cell-based, BALB/c mice. Particulars: for LAF (ratio): ratio relative to rapamycin (rapamycin 1.0), 72 h culture, PHA and IL-1. The method, then: (§1) Immunosuppressive activity was evaluated in an in vitro standard pharmacological test procedure to measure lymphocyte proliferation (LAF) and in two in vivo standard pharmacological test procedures. The first in vivo procedure was a popliteal lymph node (PLN) test procedure which measured the effect of compounds of this invention on a mixed lymphocyte reaction and the second in vivo procedure evaluated the survival time of a pinch skin graft.
Briefly, cells from the thymus of normal BALB/c mice are cultured for 72 hours with PHA and IL-1 and pulsed with tritiated thymidine during the last six hours. […] Cells are harvested and incorporated; radioactivity is determined. Inhibition of lymphoproliferation is assessed in percent change in counts per minute from non-drug treated controls. The results are expressed by the following ratio, or as the percent inhibition of lymphoproliferation of 1 μM. [formula]

Assay [3] relates to pinch skin graft. Kind of assay: Survival time of pinch skin graft. The assay is classed as in vivo, male DBA/2 donors transplanted to male BALB/c recipients. Particulars: intraperitoneal; mean ± S.D. The method, then:
as §1
The second in vivo test procedure is designed to determine the survival time of pinch skin graft from male DBA/2 donors transplanted to male BALB/c recipients. The method is adapted from Billingham R. E. and Medawar P. B., J. Exp. Biol. 28:385-402, (1951). Briefly, a pinch skin graft from the donor is grafted on the dorsum of the recipient as a homograft, and an autograft is used as control in the same region. […] Untreated recipients serve as rejection control. The graft is monitored daily and observations are recorded until the graft becomes dry and forms a blackened scab. This is considered as the rejection day. The mean graft survival time (number of days±S.D.) of the drug treatment group is compared with the control group.

For assay [4], the system named is Candida albicans. The note with it: particularly against Candida albicans, both in vitro and in vivo; cited from earlier work.
The conditions of assay [5]: alone or in combination with picibanil; cited from earlier work.
The test system of assay [6] is experimental allergic encephalomyelitis. Particulars: model for multiple sclerosis; cited from earlier work.
Assay [7] has as its system mixed lymphocyte reaction. The assay can be described thus: Popliteal lymph node (PLN) test procedure (mixed lymphocyte reaction in vivo). Further details: species or system C3H mice (recipient), BALB/c donors. The note with it: ratio relative to rapamycin (rapamycin 1.0); drug daily p.o. Day 0 to Day 4. The method, then:
as §1
A mixed lymphocyte reaction (MLR) occurs when lymphoid cells from genetically distinct animals are combined in tissue culture. Each stimulates the other to undergo blast transformation which results in increased DNA synthesis that can be quantified by the incorporation of tritiated thymidine. Since stimulating a MLR is a function of disparity at Major Histocompatibility antigens, as in vivo popliteal lymph node (PLN) test procedure closely correlates to host vs. graft disease. Briefly, irradiated spleen cells from BALB/c donors are injected into the right hind foot pad of recipient C3H mice. The drug is given daily, p.o. from Day 0 to Day 4. On Day 3 and Day 4, tritiated thymidine is given i.p., b.i.d.. On Day 5, the hind popliteal lymph nodes are removed and dissolved, and radioactivity counted. […] Percent suppression is calculated using the non-drug treated animals as allogenic control. […]

Where [8] appears, read: ATCC38246, strain ATCC 38246, read-out: MIC.
Setting [9] is: ATCC38247, strain ATCC 38247, read-out: MIC.
The mark [10] stands for this setting: ATCC38248, strain ATCC 38248, read-out: MIC.

≈ marks a conversion by molar mass, not a printed value. Read-outs that look alike come from different tables or passages of the source.

The MIC is the smallest concentration in the dilution series that meets the test's criterion for growth inhibition. Take `CCOC(=O)CO[C@@H]1CC[C@@H](C[C@@H](C)[C@@H]2CC(=O)[C@H](C)/C=C(\C)[C@@H](O)[C@@H](OC)C(=O)[C@H](C)C[C@H](C)/C=C/C=C/C=C(\C)[C@@H](OC)C[C@@H]3CC[C@@H](C)[C@@](O)(O3)C(=O)C(=O)N3CCCC[C@H]3C(=O)O2)C[C@H]1OC` [Example 1, 42-Deoxy-42-(2-ethoxy-2-oxoethoxy)rapamycin]: the MIC came to 0.5 µg/mL (≈ 0.5 µM) in assay [1] (ATCC10231); 0.1 µg/mL (≈ 0.1 µM) in assay [1] (setting [8]); 0.2 µg/mL (≈ 0.2 µM) in assay [1] (setting [9]); 0.1 µg/mL (≈ 0.1 µM) in assay [1] (setting [10]); 0.05 µg/mL (≈ 0.05 µM) in assay [1] (strain 3669, read-out: MIC). The “suppression of T-cell proliferation (LAF), in words” value in assay [2] is listed as “suppressed T-cell proliferation”. The “LAF (ratio)” value in assay [2] was 0.46. The “Skin graft survival time (days + SD)” value in assay [3] is on record as 7.5 ± 1.2 days.

On to `CO[C@H]1C[C@@H]2CC[C@@H](C)[C@@](O)(O2)C(=O)C(=O)N2CCCC[C@H]2C(=O)O[C@H]([C@H](C)C[C@@H]2CC[C@@H](OCC(=O)OC(C)(C)C)[C@H](OC)C2)CC(=O)[C@H](C)/C=C(\C)[C@@H](O)[C@@H](OC)C(=O)[C@H](C)C[C@H](C)/C=C/C=C/C=C/1C` [Example 2, 42-Deoxy-42-[2-(1,1-dimethylethoxy)-2-oxoethoxy]rapamycin], for which the MIC in assay [1] (ATCC10231, strain ATCC 10231, read-out: MIC) came out at 0.05 µg/mL (≈ 0.0486 µM); in assay [1] (setting [8]) it was 0.2 µg/mL (≈ 0.194 µM); in assay [1] (setting [9]) it was 0.05 µg/mL (≈ 0.0486 µM); in assay [1] (setting [10]), 0.1 µg/mL (≈ 0.0972 µM); in assay [1] (strain 3669, read-out: MIC), 0.2 µg/mL (≈ 0.194 µM). Also, the “suppression of T-cell proliferation (LAF), in words” value in assay [2] was “suppressed T-cell proliferation”. In addition, the “LAF (ratio)” value in assay [2] came out at 0.27.

Regarding `CO[C@H]1C[C@@H]2CC[C@@H](C)[C@@](O)(O2)C(=O)C(=O)N2CCCC[C@H]2C(=O)O[C@H]([C@H](C)C[C@@H]2CC[C@@H](O)[C@H](OC)C2)CC(=O)[C@H](C)/C=C(\C)[C@@H](O)[C@@H](OC)C(=O)[C@H](C)C[C@H](C)/C=C/C=C/C=C/1C` [Rapamycin, rapamycin], the antifungal activity entry in assay [4] is given as “found to have antifungal activity”. In addition, the antitumor activity entry in assay [5] is recorded as “shown to have antitumor activity”. In addition, the “effectiveness in experimental allergic encephalomyelitis model” value in assay [6] is given as “effective in the experimental allergic encephalomyelitis model”. Also, the “PLN (ratio)” value in assay [7] is 1.0.

Values taken from patent US5233036A, “Rapamycin alkoxyesters” (American Home Products Corporation, priority 1992, dated 1993).
